Laboratory results as given in patent publication US9062124B2, “GIP-based mixed agonists for treatment of metabolic disorders and obesity” (priority 2008, dated 2015).
Read-outs that look alike come from different tables or passages of the source. Where a SMILES comes first, the peptide text is derived from it. Bridges are numbered along the chain shown (N, C = ends). Where no end group is shown, it is not given here. [ ]: non-standard residue; d: D form. PEG 40 kDa = PEG (40 kDa) covalently attached to Cys; Nle = CCCC[C@H](N)C(=O)O; Aib = CC(C)(N)C(=O)O

Columns and labels:
Assay type in all cases: cell-based
[1] = target: T1, glucagon receptor (Homo sapiens, UniProt P47871); experiment: cAMP synthesis functional assay (firefly luciferase reporter in HEK293 cells), glucagon receptor
T1 construct: expressed in transfected cells; host or cells: HEK293

[2] = target: T2, GLP-1 receptor (Homo sapiens, UniProt P43220); experiment: cAMP synthesis functional assay (firefly luciferase reporter in HEK293 cells), GLP-1 receptor
T2 construct: expressed in transfected cells; host or cells: HEK293

[3] = target: T3, GIP receptor (Homo sapiens, UniProt P48546); experiment: cAMP synthesis functional assay (firefly luciferase reporter in HEK293 cells), GIP receptor
T3 construct: expressed in transfected cells; host or cells: HEK293
T3 sequence (P48546 22-466): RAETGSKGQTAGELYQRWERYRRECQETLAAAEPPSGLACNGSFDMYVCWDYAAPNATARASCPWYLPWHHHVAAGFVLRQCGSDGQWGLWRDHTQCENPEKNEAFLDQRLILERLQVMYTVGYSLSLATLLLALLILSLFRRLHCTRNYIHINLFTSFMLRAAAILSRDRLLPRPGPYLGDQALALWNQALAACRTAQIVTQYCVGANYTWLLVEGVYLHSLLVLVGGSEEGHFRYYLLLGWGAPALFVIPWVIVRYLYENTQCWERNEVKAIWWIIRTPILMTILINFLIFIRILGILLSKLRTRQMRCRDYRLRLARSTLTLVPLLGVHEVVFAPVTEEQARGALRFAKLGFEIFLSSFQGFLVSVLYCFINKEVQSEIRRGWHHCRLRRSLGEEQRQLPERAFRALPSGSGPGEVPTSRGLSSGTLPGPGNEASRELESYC

[4] = Table 1, relative to the native hormone of the indicated receptor
[5] = Glucagon Receptor EC50, cAMP luciferase reporter assay as in Example 16
[6] = relative to the standard (Std.) EC50 of the same run
[7] = GIP Receptor EC50, cAMP luciferase reporter assay as in Example 16
[8] = GLP-1 Receptor EC50, nM, Table 1

T1 sequence (P47871 26-477): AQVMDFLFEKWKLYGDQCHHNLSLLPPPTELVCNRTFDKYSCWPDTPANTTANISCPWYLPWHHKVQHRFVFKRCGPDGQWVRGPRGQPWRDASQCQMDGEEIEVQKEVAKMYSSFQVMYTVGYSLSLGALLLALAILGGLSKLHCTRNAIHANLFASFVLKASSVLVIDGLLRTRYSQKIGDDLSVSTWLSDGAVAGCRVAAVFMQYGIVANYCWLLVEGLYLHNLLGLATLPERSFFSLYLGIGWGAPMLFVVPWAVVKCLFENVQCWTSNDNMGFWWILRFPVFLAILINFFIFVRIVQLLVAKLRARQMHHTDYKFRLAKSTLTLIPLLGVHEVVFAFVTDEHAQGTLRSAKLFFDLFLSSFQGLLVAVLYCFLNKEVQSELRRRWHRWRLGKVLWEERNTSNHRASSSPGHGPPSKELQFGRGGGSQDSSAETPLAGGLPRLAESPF
T2 sequence (P43220 24-463, species assumed): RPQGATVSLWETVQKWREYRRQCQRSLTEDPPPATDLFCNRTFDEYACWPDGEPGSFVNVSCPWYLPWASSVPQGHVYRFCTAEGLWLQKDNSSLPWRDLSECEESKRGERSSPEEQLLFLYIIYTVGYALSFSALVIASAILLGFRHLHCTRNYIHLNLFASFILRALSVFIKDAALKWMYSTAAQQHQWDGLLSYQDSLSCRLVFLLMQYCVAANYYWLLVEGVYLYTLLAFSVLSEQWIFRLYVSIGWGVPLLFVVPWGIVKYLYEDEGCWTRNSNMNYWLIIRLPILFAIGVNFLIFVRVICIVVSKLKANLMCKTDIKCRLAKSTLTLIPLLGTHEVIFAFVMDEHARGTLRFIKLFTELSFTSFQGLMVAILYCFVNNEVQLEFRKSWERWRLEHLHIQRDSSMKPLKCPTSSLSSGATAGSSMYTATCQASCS

Row | Compound | Glucagon Receptor relative activity [1, 4] | GLP-1 Receptor relative activity [2, 4] | GIP Receptor relative activity [3, 4] | Glucagon Receptor relative activity [1, 6] | GLP-1 Receptor relative activity [2, 6] | GIP Receptor relative activity [3, 6] | also measured
1 | CC[C@H](C)[C@H](NC(=O)[C@H](CO)NC(=O)[C@H](Cc1ccc(O)cc1)NC(=O)[C@H](CC(=O)O)NC(=O)[C@H](CO)NC(=O)[C@@H](NC(=O)[C@H](Cc1ccccc1)NC(=O)[C@@H](NC(=O)CNC(=O)[C@H](CCC(N)=O)NC(=O)C(C)(C)N)[C@@H](C)O)[C@@H](C)O)C(=O)N[C@@H](Cc1ccc(O)cc1)C(=O)N[C@@H](CC(C)C)C(=O)N[C@@H](CC(=O)O)C(=O)N[C@H]1CCC(=O)NCCCC[C@@H](C(=O)N[C@@H](CCC(=O)O)C(=O)N[C@@H](Cc2ccccc2)C(=O)N[C@H](C(=O)N[C@@H](CC(N)=O)C(=O)N[C@@H](Cc2c[nH]c3ccccc23)C(=O)N[C@@H](CC(C)C)C(=O)N[C@@H](CC(C)C)C(=O)N[C@@H](C)C(=O)NCC(N)=O)C(C)C)NC(=O)[C@H](C)NC(=O)[C@H](C)NC(=O)[C@H](CCC(N)=O)NC1=O [mt-198] (H-[Aib]QGTFTSDYSIYLDEQAAKEFVNWLLAG-NH2; lactam 15-19; N-terminus assumed) | 0.53% | 0.17% | 0.02% |  |  |  | 
2 | CC[C@H](C)[C@H](NC(=O)[C@H](CO)NC(=O)[C@H](Cc1ccc(O)cc1)NC(=O)[C@H](CC(=O)O)NC(=O)[C@H](CO)NC(=O)[C@@H](NC(=O)[C@H](Cc1ccccc1)NC(=O)[C@@H](NC(=O)CNC(=O)[C@H](CCC(=O)O)NC(=O)C(C)(C)NC(=O)[C@@H](N)Cc1ccc(O)cc1)[C@@H](C)O)[C@@H](C)O)C(=O)N[C@@H](Cc1ccc(O)cc1)C(=O)N[C@@H](CC(C)C)C(=O)N[C@@H](CC(=O)O)C(=O)N[C@@H](CCCCN)C(=O)N[C@@H](CCC(N)=O)C(=O)N[C@@H](C)C(=O)N[C@@H](C)C(=O)NC(C)(C)C(=O)N[C@@H](CCC(=O)O)C(=O)N[C@@H](Cc1ccccc1)C(=O)N[C@H](C(=O)N[C@@H](CS)C(=O)N[C@@H](Cc1c[nH]c2ccccc12)C(=O)N[C@@H](CC(C)C)C(=O)N[C@@H](CC(C)C)C(=O)N[C@@H](C)C(=O)NCC(=O)NCC(=O)N1CCC[C@H]1C(=O)N[C@@H](CO)C(=O)N[C@@H](CO)C(=O)NCC(=O)N[C@@H](C)C(=O)N1CCC[C@H]1C(=O)N1CCC[C@H]1C(=O)N1CCC[C@H]1C(=O)N[C@@H](CO)C(=O)N[C@H](CCCCN)C(N)=O)C(C)C [mt-334] |  |  |  | 0.27% | 70.59% | 187.80% | EC50 [1, 5]: 7.07 nM; EC50 ([2]; GLP-1 Receptor EC50, cAMP luciferase reporter assay as in Example 16): 0.0034 nM; EC50 [3, 7]: 0.0041 nM
3 | CC[C@H](C)[C@H](NC(=O)[C@H](CO)NC(=O)[C@H](Cc1ccc(O)cc1)NC(=O)[C@H](CC(=O)O)NC(=O)[C@H](CO)NC(=O)[C@@H](NC(=O)[C@H](Cc1ccccc1)NC(=O)[C@@H](NC(=O)CNC(=O)[C@H](CCC(=O)O)NC(=O)[C@H](C)NC(=O)[C@@H](N)Cc1c[nH]cn1)[C@@H](C)O)[C@@H](C)O)C(=O)N[C@@H](Cc1ccc(O)cc1)C(=O)N[C@@H](CCSC)C(=O)N[C@@H](CC(=O)O)C(=O)N[C@H]1CCC(=O)NCCCC[C@@H](C(=O)N[C@@H](CC(=O)O)C(=O)N[C@@H](Cc2ccccc2)C(=O)N[C@H](C(=O)N[C@@H](CC(N)=O)C(=O)N[C@@H](Cc2c[nH]c3ccccc23)C(=O)N[C@@H](CC(C)C)C(=O)N[C@@H](CC(C)C)C(=O)N[C@@H](C)C(=O)N[C@@H](CCC(N)=O)C(N)=O)C(C)C)NC(=O)[C@H](CCC(N)=O)NC(=O)[C@H](Cc2c[nH]cn2)NC(=O)[C@H]([C@@H](C)CC)NC1=O [mt-97] (H-HAEGTFTSDYSIYMDEIHQKDFVNWLLAQ-NH2; lactam 16-20; N-terminus assumed) | 3.19% | 1.27% | 2.81% |  |  |  | 
4 | CC[C@H](C)[C@H](NC(=O)[C@H](CO)NC(=O)[C@H](Cc1ccc(O)cc1)NC(=O)[C@H](CC(=O)O)NC(=O)[C@H](CO)NC(=O)[C@@H](NC(=O)[C@H](Cc1ccccc1)NC(=O)[C@@H](NC(=O)CNC(=O)[C@H](CCC(=O)O)NC(=O)C(C)(C)NC(=O)[C@@H](N)Cc1ccc(O)cc1)[C@@H](C)O)[C@@H](C)O)C(=O)N[C@@H](Cc1ccc(O)cc1)C(=O)N[C@@H](CC(C)C)C(=O)N[C@@H](CC(=O)O)C(=O)N[C@@H](CCCCN)C(=O)N[C@@H](CCC(N)=O)C(=O)N[C@@H](C)C(=O)N[C@@H](C)C(=O)NC(C)(C)C(=O)N[C@@H](CCC(=O)O)C(=O)N[C@@H](Cc1ccccc1)C(=O)N[C@H](C(=O)N[C@@H](CS)C(=O)N[C@@H](Cc1c[nH]c2ccccc12)C(=O)N[C@@H](CC(C)C)C(=O)N[C@@H](CC(C)C)C(=O)N[C@@H](C)C(=O)NCC(=O)NCC(=O)N1CCC[C@H]1C(=O)N[C@@H](CO)C(=O)N[C@@H](CO)C(=O)NCC(=O)N[C@@H](C)C(=O)N1CCC[C@H]1C(=O)N1CCC[C@H]1C(=O)N1CCC[C@H]1C(=O)N[C@@H](CO)C(=O)N[C@@H](CCCCN)C(N)=O)C(C)C [mt-308] |  |  |  | 0.39% | 68.35% | 285.96% | EC50 [1, 5]: 12.2 nM; EC50 [3, 7]: 0.0057 nM
5 | CC[C@H](C)[C@H](NC(=O)[C@H](CO)NC(=O)[C@H](Cc1ccc(O)cc1)NC(=O)[C@H](CC(=O)O)NC(=O)[C@H](CO)NC(=O)[C@@H](NC(=O)[C@H](Cc1ccccc1)NC(=O)[C@@H](NC(=O)CNC(=O)[C@H](CCC(N)=O)NC(=O)[C@H](CO)NC(=O)[C@@H](N)Cc1c[nH]cn1)[C@@H](C)O)[C@@H](C)O)C(=O)N[C@@H](Cc1ccc(O)cc1)C(=O)N[C@@H](CCSC)C(=O)N[C@@H](CC(=O)O)C(=O)N[C@H]1CCC(=O)NCCCC[C@@H](C(=O)N[C@@H](CC(=O)O)C(=O)N[C@@H](Cc2ccccc2)C(=O)N[C@H](C(=O)N[C@@H](CC(N)=O)C(=O)N[C@@H](Cc2c[nH]c3ccccc23)C(=O)N[C@@H](CC(C)C)C(=O)N[C@@H](CC(C)C)C(=O)N[C@@H](C)C(=O)N[C@@H](CCC(N)=O)C(N)=O)C(C)C)NC(=O)[C@H](CCC(N)=O)NC(=O)[C@H](Cc2c[nH]cn2)NC(=O)[C@H]([C@@H](C)CC)NC1=O [mt-124] (H-HSQGTFTSDYSIYMDEIHQKDFVNWLLAQ-NH2; lactam 16-20; N-terminus assumed) | 8.64% | 100.00% | 0.95% |  |  |  | EC50 [2, 8]: 0.04 nM
6 | CC[C@H](C)[C@@H]1NC(=O)[C@@H](NC(=O)[C@H](CC(=O)O)NC(=O)[C@H](CC(C)C)NC(=O)[C@H](Cc2ccc(O)cc2)NC(=O)[C@H](CCCCN)NC(=O)[C@H](CO)NC(=O)[C@H](Cc2ccc(O)cc2)NC(=O)[C@H](CC(=O)O)NC(=O)[C@H](CO)NC(=O)[C@@H](NC(=O)[C@H](Cc2ccccc2)NC(=O)[C@@H](NC(=O)CNC(=O)[C@H](CCC(N)=O)NC(=O)[C@H](CO)NC(=O)[C@@H](N)Cc2c[nH]cn2)[C@@H](C)O)[C@@H](C)O)CCC(=O)NCCCC[C@@H](C(=O)N[C@@H](CC(=O)O)C(=O)N[C@@H](Cc2ccccc2)C(=O)N[C@H](C(=O)N[C@@H](CC(N)=O)C(=O)N[C@@H](Cc2c[nH]c3ccccc23)C(=O)N[C@@H](CC(C)C)C(=O)N[C@@H](CC(C)C)C(=O)N[C@@H](C)C(=O)N[C@@H](CCC(N)=O)C(N)=O)C(C)C)NC(=O)[C@H](CCC(N)=O)NC(=O)[C@H](Cc2c[nH]cn2)NC1=O [mt-111] (H-HSQGTFTSDYSKYLDEIHQKDFVNWLLAQ-NH2; lactam 16-20; N-terminus assumed) | 85.19% | 10.61% | 0.78% |  |  |  | EC50 [2, 8]: 0.66 nM
7 | CC[C@H](C)[C@H](NC(=O)[C@H](CO)NC(=O)[C@H](Cc1ccc(O)cc1)NC(=O)[C@H](CC(=O)O)NC(=O)[C@H](CO)NC(=O)[C@@H](NC(=O)[C@H](Cc1ccccc1)NC(=O)[C@@H](NC(=O)CNC(=O)[C@H](CCC(N)=O)NC(=O)[C@H](CO)NC(=O)[C@@H](N)Cc1ccc(O)cc1)[C@@H](C)O)[C@@H](C)O)C(=O)N[C@@H](Cc1ccc(O)cc1)C(=O)N[C@@H](CC(C)C)C(=O)N[C@@H](CC(=O)O)C(=O)N[C@H]1CCC(=O)NCCCC[C@@H](C(=O)N[C@@H](CC(=O)O)C(=O)N[C@@H](Cc2ccccc2)C(=O)N[C@H](C(=O)N[C@@H](CC(N)=O)C(=O)N[C@@H](Cc2c[nH]c3ccccc23)C(=O)N[C@@H](CC(C)C)C(=O)N[C@@H](CC(C)C)C(=O)N[C@@H](C)C(=O)N[C@@H](CCC(N)=O)C(N)=O)C(C)C)NC(=O)[C@H](CCC(N)=O)NC(=O)[C@H](Cc2c[nH]cn2)NC(=O)[C@H]([C@@H](C)CC)NC1=O [mt-110] (H-YSQGTFTSDYSIYLDEIHQKDFVNWLLAQ-NH2; lactam 16-20; N-terminus assumed) | 23.26% | 1.49% | 9.62% |  |  |  | 
8 | mt-203: glucagon analog peptide, C-terminal amide (Y[Aib]QGTFTSDYSIYLDEQAAKEFVNWL[Nle]AGGPSSGAPPPSC(PEG 40 kDa)-NH2; lactam 16-20) | 1.38% | 20.71% | 0.24% |  |  |  | EC50 ([1]; read-out: Glucagon Receptor EC50, Table 1): 4.84 nM; EC50 ([2]; read-out: GLP-1 Receptor EC50, Table 1): 0.14 nM; EC50 ([3]; read-out: GIP Receptor EC50, Table 1): 12.2 nM
9 | mt-281 (Y[Aib]QGTFTSDYSIYLDKQAA[Aib]EFVC(PEG 40 kDa)WLLAG-NH2) |  |  |  | 16.65% | 5.13% | 6.68% | EC50 ([2]; read-out: GLP-1 Receptor EC50, cAMP luciferase reporter assay as in Example 16): 0.216 nM; EC50 ([3]; read-out: GIP Receptor EC50, cAMP luciferase reporter assay as in Example 16): 0.4 nM
